Experimental data: patent US8940909B2, “Indicator platform” (Biosynth AG, priority 2009, dated 2015)

Legend:
enteric bacterial cells = experiment: MDAB staining of bacterial colonies with indicators I4a and I5a on Tryptic Soy Agar, aerobic and anaerobic; assay type: cell-based; details: for colonial morphology, aerobic conditions / colonial morphology, microaerobic (anaerobic) conditions: Salmonella manhattan (b-gal −), TSAYE with 40 mg/100 ml of indicator
Procedure: Tryptic Soy Agar (TSA) with yeast extract (0.6%) was used as the base plating medium. The media were autoclaved at 121° C. for 15 minutes and placed in a 50° C. water bath to cool. Indicators were added to the basal medium at a final concentration of 40 mg/100 ml (from 80 mg/ml stock solutions in DMF). Over night cultures of enteric bacterial cells in Brain Heart Infusion Broth were streaked onto the plates and incubated at 35° C. for 24 hours under aerobic and anaerobic conditions. After incubation, the colonial morphologies on the plates were recorded (Table III).
Weak staining was observed occasionally due to residual oxygen (micro-anaerobic conditions). Under aerobic conditions indigo (IN-stains) generally dominated the effects of MDAB staining. For example indicator system I4a/MDAB stained colonies violet under anaerobic but indigo blue under aerobic conditions.

[1] = system: Staphylococcus intermedius 31; experiment: IO staining of colonies of beta-D-galactosidase positive/negative bacteria (Table IVb); assay type: cell-based; details: Staphylococcus intermedius strain 31, b-gal +; 24 h on Nutrient Agar, 150 mg/l indicator, 100 mg/l IPTG
[2] = system: Streptococcus agalactiae 195; experiment: as above; assay type: cell-based; details: Streptococcus agalactiae strain 195, b-gal −; 24 h on Nutrient Agar, 150 mg/l indicator, 100 mg/l IPTG; on C: Color of colonies: key: −: absent; +/−: weak; +: strong; ++: very strong; on F: Fluorescence of colonies: key: −: absent; +/−: weak; +: strong; ++: very strong
Shigella boydii 135 = experiment: as above; assay type: cell-based; details: Shigella boydii strain 135, b-gal −; 24 h on Nutrient Agar, 150 mg/l indicator, 100 mg/l IPTG; further: key: −: absent; +/−: weak; +: strong; ++: very strong
Escherichia coli 270 = experiment: as above; assay type: cell-based; details: Escherichia coli strain 270, b-gal +; 24 h on Nutrient Agar, 150 mg/l indicator, 100 mg/l IPTG; on C: Color of colonies: key: −: absent; +/−: weak; +: strong; ++: very strong; on G: Growth of colonies: key: −: absent; +/−: weak; +: strong; ++: very strong
[3] = system: Shigella dysenteriae Serovar 1 131; experiment: as above; assay type: cell-based; details: Shigella dysenteriae Serovar 1 strain 131, b-gal +/−; 24 h on Nutrient Agar, 150 mg/l indicator, 100 mg/l IPTG
[4] = system: Escherichia coli (O157:H7) 60; experiment: as above; assay type: cell-based; details: Escherichia coli (O157:H7) strain 60, b-gal +; 24 h on Nutrient Agar, 150 mg/l indicator, 100 mg/l IPTG
[5] = system: Salmonella enteritidis 43; experiment: as above; assay type: cell-based; details: Salmonella enteritidis strain 43, b-gal −; 24 h on Nutrient Agar, 150 mg/l indicator, 100 mg/l IPTG; further: key: −: absent; +/−: weak; +: strong; ++: very strong
Staphylococcus aureus 2 = experiment: as above; assay type: cell-based; details: Staphylococcus aureus strain 2, b-gal −, 24 h on Nutrient Agar, 150 mg/l indicator, 100 mg/l IPTG; on F: Fluorescence of colonies: key: −: absent; +/−: weak; +: strong; ++: very strong
Salmonella bongori 81 = experiment: as above; assay type: cell-based; details: Salmonella bongori strain 81, b-gal +; 24 h on Nutrient Agar, 150 mg/l indicator, 100 mg/l IPTG; on C: Color of colonies: key: −: absent; +/−: weak/variable; +: strong; on G: Growth of colonies: key: −: absent; +/−: weak; +: strong; ++: very strong
[6] = system: Yersinia enterocolitica 175; experiment: as above; assay type: cell-based; details: Yersinia enterocolitica strain 175, b-gal +/−; 24 h on Nutrient Agar, 150 mg/l indicator, 100 mg/l IPTG; on G: Growth of colonies: key: −: absent; +/−: weak; +: strong; ++: very strong
[7] = system: Staphylococcus saprophyticus 273; experiment: as above; assay type: cell-based; details: Staphylococcus saprophyticus strain 273, b-gal +; 24 h on Nutrient Agar, 150 mg/l indicator, 100 mg/l IPTG; on G: Growth of colonies: key: −: absent; +/−: weak; +: strong; ++: very strong
[8] = system: Listeria monocytogenes (4b) 290; experiment: as above; assay type: cell-based; details: Listeria monocytogenes (4b) strain 290, b-gal −; 24 h on Nutrient Agar, 150 mg/l indicator, 100 mg/l IPTG; on C: Color of colonies: key: −: absent; +/−: weak; +: strong; ++: very strong; on F: Fluorescence of colonies: key: −: absent; +/−: weak; +: strong; ++: very strong
Bacillus subtilis 65 = experiment: as above; assay type: cell-based; details: Bacillus subtilis strain 65, b-gal −; 24 h on Nutrient Agar, 150 mg/l indicator, 100 mg/l IPTG; on C: Color of colonies: key: −: absent; +/−: weak; +: strong; ++: very strong; on F: Fluorescence of colonies: key: −: absent; +/−: weak; +: strong; ++: very strong
Aeromonas hydrophila 292 = experiment: as above; assay type: cell-based; details: Aeromonas hydrophila strain 292, b-gal +; 24 h on Nutrient Agar, 150 mg/l indicator, 100 mg/l IPTG; on G: Growth of colonies: key: −: absent; +/−: weak; +: strong; ++: very strong
Citrobacter freundii 181 = experiment: as above; assay type: cell-based; details: Citrobacter freundii strain 181, b-gal +; 24 h on Nutrient Agar, 150 mg/l indicator, 100 mg/l IPTG; on C: Color of colonies: key: −: absent; +/−: weak; +: strong; ++: very strong; on G: Growth of colonies: key: −: absent; +/−: weak; +: strong; ++: very strong
Escherichia coli = experiment: IN and IO staining of bacterial colonies under anaerobic conditions; assay type: cell-based; details: Nutrient Agar plates, anaerobically incubated with E. coli
Procedure: Nutrient Agar plates containing 150 mg/l of various substrates and 100 mg/l IPTG were inoculated with Escherichia coli. Plates were put in an anaerobic jar (Anaerojar, Oxoid), an AnaeroGen sachet (Oxoid) was added, the jar was closed and incubated for 24 hours at 37° C.
IN staining cannot be used under anaerobic conditions.

Escherichia coli 61 = experiment: IO staining of colonies of beta-D-galactosidase positive/negative bacteria (Table IVb); assay type: cell-based; details: Escherichia coli strain 61, b-gal +; 24 h on Nutrient Agar, 150 mg/l indicator, 100 mg/l IPTG; on C: Color of colonies: key: −: absent; +/−: weak; +: strong; ++: very strong; on G: Growth of colonies: key: −: absent; +/−: weak; +: strong; ++: very strong
Salmonella illa 73 = experiment: as above; assay type: cell-based; details: Salmonella illa strain 73, b-gal +; 24 h on Nutrient Agar, 150 mg/l indicator, 100 mg/l IPTG; further: key: −: absent; +/−: weak; +: strong; ++: very strong
[9] = system: Pseudomonas aeruginosa 168; experiment: as above; assay type: cell-based; details: Pseudomonas aeruginosa strain 168, b-gal −, 24 h on Nutrient Agar, 150 mg/l indicator, 100 mg/l IPTG; on C: Color of colonies: key: −: absent; +/−: weak; +: strong; ++: very strong; on G: Growth of colonies: key: −: absent; +/−: weak; +: strong; ++: very strong
Serratia marcescens 40 = experiment: as above; assay type: cell-based; details: Serratia marcescens strain 40, b-gal +; 24 h on Nutrient Agar, 150 mg/l indicator, 100 mg/l IPTG; on G: Growth of colonies: key: −: absent; +/−: weak; +: strong; ++: very strong
Shigella sonnei 133 = experiment: as above; assay type: cell-based; details: Shigella sonnei strain 133, b-gal +/−; 24 h on Nutrient Agar, 150 mg/l indicator, 100 mg/l IPTG; on C: Color of colonies: key: −: absent; +/−: weak; +: strong; ++: very strong; on G: Growth of colonies: key: −: absent; +/−: weak; +: strong; ++: very strong
[10] = system: Klebsiella pneumoniae 164; experiment: as above; assay type: cell-based; details: Klebsiella pneumoniae strain 164, b-gal +; 24 h on Nutrient Agar, 150 mg/l indicator, 100 mg/l IPTG; on C: Color of colonies: key: −: absent; +/−: weak; +: strong; ++: very strong; on G: Growth of colonies: key: −: absent; +/−: weak; +: strong; ++: very strong
Enterobacter cloacae 245 = experiment: as above; assay type: cell-based; details: Enterobacter cloacae strain 245, b-gal +; 24 h on Nutrient Agar, 150 mg/l indicator, 100 mg/l IPTG; on C: Color of colonies: key: −: absent; +/−: weak; +: strong; ++: very strong; on G: Growth of colonies: key: −: absent; +/−: weak; +: strong; ++: very strong
[11] = system: Enterobacter aerogenes 242; experiment: as above; assay type: cell-based; details: Enterobacter aerogenes strain 242, b-gal +; 24 h on Nutrient Agar, 150 mg/l indicator, 100 mg/l IPTG; on C: Color of colonies: key: −: absent; +/−: weak; +: strong; ++: very strong; on G: Growth of colonies: key: −: absent; +/−: weak; +: strong; ++: very strong
[12] = Reaction of MDAB with active signalogens (aldol donor properties); details: for Efficiency as aldol donor with MDAB: compared with 6-chloro-1H-indol-3-ol (aS3); for Aldol product / color formed with MDAB: presence of MDAB, absence of oxygen

5-Bromo-6-chloro-1H-indol-3-yl-beta-D-galactopyranoside [Indicator I5a]
colonial morphology, aerobic conditions (enteric bacterial cells; aR MDAB, equivalents 1:1): Cream colored colonies | colonial morphology, microaerobic (anaerobic) conditions (enteric bacterial cells; aR MDAB, equivalents 1:1): Cream colored colonies | colonial morphology, aerobic conditions (enteric bacterial cells; no aR): Cream colored colonies | colonial morphology, microaerobic (anaerobic) conditions (enteric bacterial cells; no aR): Cream colored colonies

CN(C)c1ccc(C=O)cc1 [DAB, 4-(N,N-Dimethyl)aminobenzaldehyde]
Formation of BI-stains when used to replace MDAB (enteric bacterial cells; all conditions tested): did not produce any BI-stains

Cn1cccc1C(=O)c1ccccc1-n1cc(O[C@@H]2O[C@H](CO)[C@H](O)[C@H](O)[C@H]2O)c2ccc(Cl)cc21 [Indicator I31a, 6-Chloro-1-[2-(N-methylpyrrole-2-carbonyl)phenyl]-1H-indol-3-yl-beta-D-galactopyranoside]
C: Color of colonies [1]: + | F: Fluorescence of colonies [1]: − | G: Growth of colonies [1]: + | C: Color of colonies [2]: − | F: Fluorescence of colonies [2]: − | G: Growth of colonies [2]: +/− | C: Color of colonies (Shigella boydii 135): − | F: Fluorescence of colonies (Shigella boydii 135): − | G: Growth of colonies (Shigella boydii 135): + | C: Color of colonies (Escherichia coli 270): + | F: Fluorescence of colonies (Escherichia coli 270): +/− | G: Growth of colonies (Escherichia coli 270): + | C: Color of colonies [3]: − | F: Fluorescence of colonies [3]: − | G: Growth of colonies [3]: + | C: Color of colonies [4]: + | F: Fluorescence of colonies [4]: +/− | G: Growth of colonies [4]: + | C: Color of colonies [5]: − | F: Fluorescence of colonies [5]: − | G: Growth of colonies [5]: + | F: Fluorescence of colonies (Staphylococcus aureus 2): − | G: Growth of colonies (Staphylococcus aureus 2): + | C: Color of colonies (Staphylococcus aureus 2; footnote 2: S. aureus natural color): − | C: Color of colonies (Salmonella bongori 81): +/− | F: Fluorescence of colonies (Salmonella bongori 81): − | G: Growth of colonies (Salmonella bongori 81): + | C: Color of colonies [6]: +/− | F: Fluorescence of colonies [6]: − | G: Growth of colonies [6]: + | C: Color of colonies [7]: + | F: Fluorescence of colonies [7]: − | G: Growth of colonies [7]: + | C: Color of colonies [8]: − | F: Fluorescence of colonies [8]: − | G: Growth of colonies [8]: +/− | C: Color of colonies (Bacillus subtilis 65): − | F: Fluorescence of colonies (Bacillus subtilis 65): − | G: Growth of colonies (Bacillus subtilis 65): + | C: Color of colonies (Aeromonas hydrophila 292): + | F: Fluorescence of colonies (Aeromonas hydrophila 292): − | G: Growth of colonies (Aeromonas hydrophila 292): + | C: Color of colonies (Citrobacter freundii 181): + | F: Fluorescence of colonies (Citrobacter freundii 181): +/− | G: Growth of colonies (Citrobacter freundii 181): + | C: Color of colonies (Escherichia coli): o-r | D: Diffusion around colonies (Escherichia coli): + | G: Growth of colonies (Escherichia coli): + | I: Intensity of color (Escherichia coli): + | L: Localization on colonies (Escherichia coli): +/− | S: Size of colonies (Escherichia coli): 0.8 mm | C: Color of colonies (Escherichia coli 61): + | F: Fluorescence of colonies (Escherichia coli 61): +/− | G: Growth of colonies (Escherichia coli 61): + | C: Color of colonies (Salmonella illa 73): − | F: Fluorescence of colonies (Salmonella illa 73): − | G: Growth of colonies (Salmonella illa 73): + | C: Color of colonies [9]: − | G: Growth of colonies [9]: + | F: Fluorescence of colonies ([9]; footnote 1: blue autofluorescence): − | C: Color of colonies (Serratia marcescens 40): + | F: Fluorescence of colonies (Serratia marcescens 40): − | G: Growth of colonies (Serratia marcescens 40): + | C: Color of colonies (Shigella sonnei 133): + | F: Fluorescence of colonies (Shigella sonnei 133): +/− | G: Growth of colonies (Shigella sonnei 133): + | C: Color of colonies [10]: + | F: Fluorescence of colonies [10]: +/− | G: Growth of colonies [10]: + | C: Color of colonies (Enterobacter cloacae 245): + | F: Fluorescence of colonies (Enterobacter cloacae 245): +/− | G: Growth of colonies (Enterobacter cloacae 245): + | C: Color of colonies [11]: + | F: Fluorescence of colonies [11]: +/− | G: Growth of colonies [11]: +

COc1cc(N(C)C)ccc1C=O [MDAB, 2-methoxy-4-(N,N-dimethylamino)benzaldehyde]
Toxic effect on microbial cell growth (enteric bacterial cells; Indox/MDAB staining of microbial colonies): no toxic effect

Oc1c[nH]c2ccc(Br)c(Cl)c12 [aS4, 5-Bromo-4-chloro-1H-indol-3-ol]
Efficiency as aldol donor with MDAB [12]: far more effective

Oc1c[nH]c2cc(Cl)c(Br)cc12 [aS5, 5-Bromo-6-chloro-1H-indol-3-ol]
Efficiency as aldol donor with MDAB [12]: far more effective

Nc1c[nH]c2ccccc12 [aS6, 1H-Indol-3-amine]
Aldol product / color formed with MDAB [12]: Formation of the expected hetero aldol product was not observed | Aldol product / color formed with MDAB ([12]; listed as 3-aminoindole): failed to yield any aldol product
